Reference: paper PMC6811792, “The Binding Affinity of Small Molecules with Yam Tyrosinase (Catechol Oxidase): A Biophysical Study” (Biochemistry Research International, 2019)
Like-named read-outs stand apart in the source and are kept apart here.

What was measured:
yam tyrosinase [1] = assay: Diphenolase activity assay (dopachrome at 475 nm, L-DOPA substrate); assay type: biochemical, Amorphophallus paeoniifolius; details: 2 mM L-DOPA, pH 7.0, 30°C
Protocol: The reaction mixture (3 mL) contained 2 mM of L-DOPA in 50 mM potassium phosphate buffer (pH 7.0); a portion of 100 μL of the enzyme was used for the activity assay. The reaction was carried out at a constant temperature of 30°C using a Shimadzu UV visible spectrophotometer. IC50 values were calculated as per the formula reported earlier.

yam tyrosinase [2] = assay: SPR interaction kinetics of single analytes with immobilized yam tyrosinase, two-state model; assay type: binding, Amorphophallus paeoniifolius
Protocol: SPR interaction studies were carried out using a Biocore X100 optical biosensor (GE Healthcare Life Sciences, Uppsala, Sweden). All the SPR measurements were performed in phosphate buffer saline (PBS; 10.1 mM Na2PO4, 1.8 mM KH2PO4, 137 mM NaCl, 2.7 mM KCl, pH 7.4, 0.005% P20). Initially, working dilutions were prepared from the analyte stock solution in PBS only and then allowed to flow through the sensor surface. Biocore control software version 2.2 was used for data collection. Refractive index changes as a function of time under constant flow condition are monitored by the system, and accordingly, experiments were performed. […] There is an inline subtraction of reference surface during the run. This change is usually reported in terms of response units (RUs). The surface of the chip is washed with PBS (running buffer) between each concentration.
The method of amine coupling was employed for the immobilization of yam tyrosinase which was dissolved (50 μg/mL) in 0.1 M sodium acetate buffer with pH value 4.5 as per the pH scouting study in [15]. Yam tyrosinase was immobilized on sensor chip series S CM5. Flow cell on the chip surface was activated for 7 min using a 1 : 1 mixture of 100 mM […] (EDC) and 100 mM N-hydroxysuccinimide (NHS) (both dissolved in water), and subsequently, tyrosinase was injected for 7 min, followed by injection of 1 M ethanolamine, pH 8.5 to block nonreactive sites. For this study, flow cell 3 was blank immobilized (without protein) as reference.
Crocin and kojic acid are natural tyrosinase inhibitors, whereas hydroquinone is a synthetic inhibitor. The grouping of inhibitors was simply based on the efficiency, size, solubility, and origin of inhibitors. […] PBS was used as the running buffer. The flow rate was constant (45 μL/min) throughout the experiment. The contact time (association time) and dissociation time were fixed to 120 s. Experiments were performed with different concentrations of individual inhibitors based on their solubilities: crocin (0.156–2.5 mM), hydroquinone (0.625–10 mM), kojic acid ([…]), and L-DOPA (5–80 mM). These concentrations were optimized by repeating the SPR experiments several times to achieve appropriate binding interactions. […] Regeneration was carried out with 10 mM glycine pH 2.5 for 30 s. Binding analysis was evaluated using the heterogeneous analyte kinetics model. After each cycle of regeneration, the activity of the enzyme was checked by injecting a single concentration of L-DOPA, and RU response was observed. The data analyses were done with Biacore X100 evaluation software version 2.2, and data were fit to two-state binding and/or heterogeneous analyte binding.
Flow rate was maintained at 45 μL/min. Contact time and dissociation time were kept at 120 s and 200 s. Regeneration was carried out using 10 mM glycine HCl at pH 2.5 for 30 s and at 30 μL/min. The data analysis was performed with Biacore X100 evaluation software version 2.0.1, and data were fit to two states. Each concentration represents sensorgram in the increasing order of curves. Crocin with concentrations (0.156, 0.312, 0.625, 1.25, and 2.5 mM) was injected over the enzyme surface (a). Kojic acid with concentrations (0.0156, 0.0312, 0.0625, 0.125, and 0.25 mM) was injected over the enzyme surface (b). Hydroquinone with concentrations (0.625, 1.25, 2.5, 5.0, and 10 mM) was injected over enzyme surface (c). L-DOPA with concentrations (5, 10, 20, 40 and 80 mM) was injected over the enzyme surface (d).

yam tyrosinase [3] = target: yam tyrosinase; set-up: method as in PMID 29246874; details: SPR, two-state model, substrate; cited from earlier work

IC50 (yam tyrosinase [1]) [mM]	Kd (yam tyrosinase [2]; PBS pH 7.4) [mM]	k a1 (yam tyrosinase [2]; PBS pH 7.4) [M⁻¹ s⁻¹]	k a2 (yam tyrosinase [2]; PBS pH 7.4) [s⁻¹]	k d1 (yam tyrosinase [2]; PBS pH 7.4) [s⁻¹]	k d2 (yam tyrosinase [2]; PBS pH 7.4) [s⁻¹]	Kd (yam tyrosinase [2]; PBS pH 7.4, listed as crocin) [mM]	SMILES	Kd (yam tyrosinase [3]) [mM]	k a1 (yam tyrosinase [3])	k a2 (yam tyrosinase [3])	k d1 (yam tyrosinase [3]) [s⁻¹]	k d2 (yam tyrosinase [3]) [s⁻¹]
1	1.66	224 ± 11	0.003525 ± 9.7e-05	0.5772 ± 0.025	0.006429 ± 0.00014	1.7	CC(/C=C/C=C(\C)C(=O)O[C@@H]1O[C@H](CO[C@@H]2O[C@H](CO)[C@@H](O)[C@H](O)[C@H]2O)[C@@H](O)[C@H](O)[C@H]1O)=C\C=C\C=C(C)\C=C\C=C(/C)C(=O)O[C@@H]1O[C@H](CO[C@@H]2O[C@H](CO)[C@@H](O)[C@H](O)[C@H]2O)[C@@H](O)[C@H](O)[C@H]1O [Crocin, crocin]	–	–	–	–	–
1.5	–	2.89 ± 0.13	0.001569 ± 3.5e-05	0.9166 ± 0.02	0.005185 ± 0.00013	–	Oc1ccc(O)cc1 [Hydroquinone, hydroquinone]	–	–	–	–	–
0.0001	0.00639	334 ± 16	0.00539 ± 7.8e-05	0.03182 ± 0.0013	–	–	O=c1cc(CO)occ1O [Kojic acid]	–	–	–	–	–
–	–	–	–	–	–	–	N[C@@H](Cc1ccc(O)c(O)c1)C(=O)O [L-DOPA, L-3 dihydroxyphenylalanine]	0.00135	9.54 × 10^4 1/ms	0.001544 ± 1.50 × 10^4 1/s	0.5089 ± 0.085	0.000523 ± 8.4e-05
